Assay results: US10837044B2, “Automated method for analyzing and interpreting an antimicrobial susceptibility” (FONDATION MEDITERRANEE INFECTION, priority 2014, dated 2020)

Tests used:
Escherichia coli [1] = assay: antibiogram by diffusion on Mueller-Hinton agar with antibiotic wafers; format: cell-based; details: Table C2, square dish
Experimental: (§1) The inoculum was prepared by making a suspension of bacteria directly from colonies put into solution in tubes of sterile water so that the solution presented accurate opacity as determined with a spectrophotometer equivalent to the opacity of a 0.5 standard in the McFarland range. This bacterial suspension concentration is standardized since a more concentrated inoculum would lead to smaller diameters for the inhibition zone, and vice versa.
(§2) The inoculum corresponds to concentrations of about 10^8 CFU/mL for Escherichia coli, Klebsiella pneumoniae, Proteus mirabilis, Klebsiella oxytoca, Enterobacter cloacea, Enterobacter aerogenes, Entercoccus faecalis, Pseudomonas aeruginosa, Staphylococcus aureus, and Staphylococcus epidermidis. These are the ten species bacteria that are encountered the most frequently in human pathologies.
(§3) 1.2) The bacterial sample was deposited on a solid culture medium in a petri dish having a diameter of 90 mm or in a square dish having a side of 120 mm, the medium being constituted by a Mueller-Hinton agar specific for (EUCAST) antibiograms. Ideally, it should be used in the 15 minutes (min) following preparation of the suspension.
(§4) Seeding was done by the method of diffusion on an agar medium by flooding in which excess bacterial suspension was added to the Mueller-Hinton agar. After homogenizing, excess liquid was discarded in order to avoid over-inoculating the dishes. It is necessary to wait beforehand for the surface of the agar to be dry in order to eliminate any trace of moisture encouraging bacterial invasion.
(§5) The disks of the antibiotic wafers were deposited within 15 min after inoculating the agar. The antibiotic impregnated disks were deposited using an automatic dispenser that placed the disks firmly on the surface of the inoculated and dried agar. The number of disks deposited per dish was limited because of inhibition zone overlap and in order to limit interference between antibiotics. It is important for the inhibition diameters to be measurable. The antibiograms were then incubated at 37° C. for 18 hours (h) to 24 h.
(§6) The antibiotic wafers were made of high quality absorbent paper with a diameter of 6 mm and they were impregnated with antibiotics at concentrations in the range 1 micrograms (μg) to 300 μg approximately, depending on the antibiotic.
(§7) In the examples below, reference disks were used as sold by the suppliers i2a (Montpellier, France), BD (Becton Dickinson, USA), Bio-Rad (Hercules, USA), Biomerieux (Marcy l′Etoile, France) containing the following antibiotics and carrying the following codes and the following doses: AMX (amoxicillin) 25 μg: AMC (amoxicillin-clavulanic acid) 20 μg-10 μg; GM for gentamicin, 15 μg; SXT (trimethoprim-sulfamethoxazole) 1.25/23.75 μg; TIC (ticarcillin) 75 μg; TCC (ticarcillin-clavulanic acid) […]; TZP (piperacillin-tazobactam) 75/10 μg; CAZ (ceftazidime) 30 μg; IMP or IPM (imipeneme) 10 μg; COL (colistin) 50 μg; FOX (cefoxitine) 30 μg; VAN (vancomycin) 30 μg; TEC (teicoplanin) 30 μg; CLI or DA (clindamycin) 2 μg; CRO (ceftriaxone) 30 μg; CIP (ciprofloxacin) 5 μg; OFX (ofloxacin) 5 μg; CTX (cefotaxime) 5 μg; AN or AK (amikacin) 30 μg; TM (tobramycin) 10 μg; FOX (cefoxitine) 30 μg; ATM (aztreonam) 30 μg; ERT (ertapenem) 10 μg; FF (fosfomycin) 200 μg; DO (doxycycline) 30 μg; K (kanamycin) 1000 μg; L (lincomycin) 15 μs; LNZ (linezolid) 10 μg; AN (nalidixic acid) 30 μg; NOR (norfloxacin) 10 μg; PT (pristinamycin) 15 μg; RA (rifampicin) 5 μg; and E (erythromycin) 15 μg.

Klebsiella pneumoniae = assay: as above; format: cell-based; details: Table C2, sixteen wafers, square dish
Experimental: as §1, §2, §3, §4, §5, §6, §7

Pseudomonas aeruginosa = assay: as above; format: cell-based; details: Table C1, six wafers, disk loads of Table B
Experimental: as §1, §2, §3, §4, §5, §6, §7

Staphylococcus aureus = assay: as above; format: cell-based; details: Table C2, sixteen wafers, square dish
Experimental: as §1, §2, §3, §4, §5, §6, §7

Escherichia coli [2] = details: cited from earlier work; for Critical diameters (mm) R> / Critical diameters (mm) S≤: disk load 10 μg, inhibition zone diameter; for Critical diameters (mm) R> / Critical concentrations (mg/L) R>: resistant; for Critical diameters (mm) S≤ / Critical concentrations (mg/L) S≤: sensitive; for Critical concentrations (mg/L) R>: high critical concentration; for Critical concentrations (mg/L) S≤: low critical concentration
Entercoccus faecalis = assay: antibiogram by diffusion on Mueller-Hinton agar with antibiotic wafers; format: cell-based; details: Table C1, six wafers, disk loads of Table B
Experimental: as §1, §2, §3, §4, §5, §6, §7

[3] = E. coli phenotype Cephalosporinase + R to fluoroquinolones + R to cotrimoxazole + partial R to aminosides, sixteen wafers
[4] = E. coli phenotype Hl penicillinase + R to fluoroquinolones + R to cotrimoxazole + partial R to aminosides, sixteen wafers
[5] = E. coli phenotype Wild, sixteen wafers in a rectangular grid
[6] = K. pneumoniae phenotype Cephalosporinase + R to aminosides + R to cotrimoxazole
[7] = P. aeruginosa Abnormal phenotype
[8] = P. aeruginosa phenotype Carbapenemase
[9] = P. aeruginosa phenotype Penicillinase
[10] = P. aeruginosa phenotype Selective imipenem permeability
[11] = S. aureus phenotype R to methicilline, R to aminosides, fluoroquinolones, to rifampicie, to macrolides and the like

Molecule | resistant (I/R) or sensitive (S) (Escherichia coli [1]; [3]) | resistant (I/R) or sensitive (S) (Escherichia coli [1]; [4]) | resistant (I/R) or sensitive (S) (Escherichia coli [1]; [5]) | resistant (I/R) or sensitive (S) (Klebsiella pneumoniae; [6]) | resistant (I/R) or sensitive (S) (Klebsiella pneumoniae; K. pneumoniae phenotype Wild) | resistant (I/R) or sensitive (S) (Staphylococcus aureus; [11]) | resistant (I/R) or sensitive (S) (Staphylococcus aureus; S. aureus phenotype Wild) | further results
NCC[C@H](O)C(=O)N[C@@H]1C[C@H](N)[C@@H](O[C@H]2O[C@H](CN)[C@@H](O)[C@H](O)[C@H]2O)[C@H](O)[C@H]1O[C@H]1O[C@H](CO)[C@@H](O)[C@H](N)[C@H]1O [AK, amikacin] | S | S | S | S | R |  |  | 
C[C@H]1[C@H](NC(=O)/C(=N\OC(C)(C)C(=O)O)c2csc(N)n2)C(=O)N1S(=O)(=O)O [ATM, aztreonam] | R | S | S | R | R |  |  | 
CC(C)(O/N=C(\C(=O)N[C@@H]1C(=O)N2C(C(=O)[O-])=C(C[n+]3ccccc3)CS[C@H]12)c1csc(N)n1)C(=O)O [CAZ, ceftazidime] |  |  |  |  |  |  |  | resistance (I, R) or sensitivity (S) (Pseudomonas aeruginosa; [7]): S; resistance (I, R) or sensitivity (S) (Pseudomonas aeruginosa; P. aeruginosa phenotype BSBL): R; resistance (I, R) or sensitivity (S) (Pseudomonas aeruginosa; [8]): R; resistance (I, R) or sensitivity (S) (Pseudomonas aeruginosa; [9]): S; resistance (I, R) or sensitivity (S) (Pseudomonas aeruginosa; [10]): S; resistance (I, R) or sensitivity (S) (Pseudomonas aeruginosa; P. aeruginosa phenotype Wild): S
O=C(O)c1cn(C2CC2)c2cc(N3CCNCC3)c(F)cc2c1=O [CIP, ciprofloxacin] | R | R | S | R | S | R | S | 
CO/N=C(\C(=O)N[C@@H]1C(=O)N2C(C(=O)O)=C(COC(C)=O)CS[C@H]12)c1csc(N)n1 [CTX, cefotaxime] | R | S | S | R | R |  |  | 
C[C@H]1c2cccc(O)c2C(=O)C2=C(O)[C@]3(O)C(=O)C(C(N)=O)=C(O)[C@@H](N(C)C)[C@@H]3[C@@H](O)[C@@H]21 [DO, doxycycline] |  |  |  |  |  | R | S | 
C[C@@H](O)[C@H]1C(=O)N2C(C(=O)O)=C(S[C@@H]3CN[C@H](CNS(N)(=O)=O)C3)[C@H](C)[C@H]12 [Doripenem] |  |  |  |  |  |  |  | Critical diameters (mm) R> (Escherichia coli [2]): 21 mm; Critical diameters (mm) S≤ (Escherichia coli [2]): 24 mm; Critical concentrations (mg/L) R> (Escherichia coli [2]): 2 mg/L; Critical concentrations (mg/L) S≤ (Escherichia coli [2]): 1 mg/L
CC[C@H]1OC(=O)[C@H](C)[C@@H](O[C@H]2C[C@@](C)(OC)[C@@H](O)[C@H](C)O2)[C@H](C)[C@@H](O[C@@H]2O[C@H](C)C[C@H](N(C)C)[C@H]2O)[C@](C)(O)C[C@@H](C)C(=O)[C@H](C)[C@@H](O)[C@]1(C)O [E, erythromycin] |  |  |  |  |  | R | S | 
C[C@@H](O)[C@H]1C(=O)N2C(C(=O)O)=C(S[C@@H]3CN[C@H](C(=O)Nc4cccc(C(=O)O)c4)C3)[C@H](C)[C@H]12 [Ertapenem] |  |  |  |  |  |  |  | Critical diameters (mm) R> (Escherichia coli [2]): 22 mm; Critical diameters (mm) S≤ (Escherichia coli [2]): 25 mm; Critical concentrations (mg/L) R> (Escherichia coli [2]): 1 mg/L; Critical concentrations (mg/L) S≤ (Escherichia coli [2]): 0.5 mg/L
C[C@@H]1O[C@@H]1P(=O)(O)O [FF, fosfomycin] |  |  |  |  |  | R | S | 
O=C1CN(/N=C/c2ccc([N+](=O)[O-])o2)C(=O)N1 [FUR, nitrofurantoin] |  |  |  |  |  | R | S | resistance (I, R) or sensitivity (S) (Entercoccus faecalis; E. faecalis phenotype Atypical): S; resistance (I, R) or sensitivity (S) (Entercoccus faecalis; E. faecalis phenotype Wild): S
CCC[C@@H]1C[C@@H](C(=O)N[C@@H]([C@H]2O[C@H](SC)[C@H](O)[C@@H](O)[C@H]2O)[C@@H](C)O)N(C)C1 [LIN, lincomycin] |  |  |  |  |  |  |  | resistance (I, R) or sensitivity (S) (Entercoccus faecalis; E. faecalis phenotype Atypical): S; resistance (I, R) or sensitivity (S) (Entercoccus faecalis; E. faecalis phenotype Wild): S
CC(=O)NC[C@H]1CN(c2ccc(N3CCOCC3)c(F)c2)C(=O)O1 [LNZ, linezolid] |  |  |  |  |  | S | S | 
C[C@@H](O)[C@H]1C(=O)N2C(C(=O)O)=C(S[C@@H]3CN[C@H](C(=O)N(C)C)C3)[C@H](C)[C@H]12 [Meopenem] |  |  |  |  |  |  |  | Critical diameters (mm) R> (Escherichia coli [2]): 16 mm; Critical diameters (mm) S≤ (Escherichia coli [2]): 22 mm; Critical concentrations (mg/L) R> (Escherichia coli [2]): 8 mg/L; Critical concentrations (mg/L) S≤ (Escherichia coli [2]): 2 mg/L
CC1COc2c(N3CCN(C)CC3)c(F)cc3c(=O)c(C(=O)O)cn1c23 (centres unmarked) [OFX, ofloxacin] | R | R | S | R | S |  |  | 
Cc1onc(-c2ccccc2)c1C(=O)N[C@@H]1C(=O)N2[C@@H]1SC(C)(C)[C@@H]2C(=O)O [OXA, oxacillin] |  |  |  |  |  | R | S | 
CO[C@H]1/C=C/O[C@@]2(C)Oc3c(C)c(O)c4c(O)c(c(/C=N/N5CCN(C)CC5)c(O)c4c3C2=O)NC(=O)/C(C)=C\C=C\[C@H](C)[C@H](O)[C@@H](C)[C@@H](O)[C@@H](C)[C@H](OC(C)=O)[C@@H]1C [RA, rifampicin] |  |  |  |  |  | R | S | 
CC1(C)S[C@@H]2[C@H](NC(=O)[C@H](C(=O)O)c3ccsc3)C(=O)N2[C@H]1C(=O)O [TIC, ticarcillin] | R | R | S | R | R |  |  | resistance (I, R) or sensitivity (S) (Pseudomonas aeruginosa; [7]): R; resistance (I, R) or sensitivity (S) (Pseudomonas aeruginosa; P. aeruginosa phenotype BSBL): I/R; resistance (I, R) or sensitivity (S) (Pseudomonas aeruginosa; [8]): R; resistance (I, R) or sensitivity (S) (Pseudomonas aeruginosa; [9]): R; resistance (I, R) or sensitivity (S) (Pseudomonas aeruginosa; [10]): S; resistance (I, R) or sensitivity (S) (Pseudomonas aeruginosa; P. aeruginosa phenotype Wild): S
NC[C@H]1O[C@H](O[C@H]2[C@H](O)[C@@H](O[C@H]3O[C@H](CO)[C@@H](O)[C@H](N)[C@H]3O)[C@H](N)C[C@@H]2N)[C@H](N)C[C@@H]1O [TOB, tobramycin] | R | R | S | R | R | R | S | 
pristinamycin [PT] |  |  |  |  |  | R | S | 
